Marks after values point to notes of the source that are not given here.
Key:
[1] = test system: HepG2; assay: MTT cytotoxicity assay, substances alone, HepG2; assay type: cell-based, human; details: HepG2
Method: (§1) Suitable vehicle controls were also included.
(§2) The effect of the treatments on cell viability was measured by the MTT assay as previously described. A higher than 30% reduction of cell viability was considered as a significant cytotoxic effect.

[2] = test system: Mz-ChA-1; assay: MTT cytotoxicity assay, substances alone, Mz-ChA-1; assay type: cell-based, human; details: Mz-ChA-1
Method: as §1, §2

[3] = test system: Bx-PC3; assay: MTT cytotoxicity assay, substances alone, Bx-PC3; assay type: cell-based, human
Method: as §1, §2

[4] = test system: noncancerous H69 cholangiocytes; assay: MTT cytotoxicity assay (tolerability), substances alone, H69; assay type: cell-based, human; details: H69 noncancerous cholangiocytes; substance alone; 4 h exposure + 72 h recovery
Method: as §1, §2

[5] = test system: HepG2; assay: Combination assay with sorafenib (MTT), HepG2; assay type: cell-based, human; details: for increase of sorafenib cytotoxicity in combination: verapamil/MK571 1 µg/mL or sesquiterpenes 10 µg/mL;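 for increase of sorafenib cytotoxicity in combination: percent increase of sorafenib cell viability inhibition versus sorafenib alone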
Method: as §1
(§3) The type of interaction (synergistic, additive, or antagonistic) among sorafenib and test substances or positive controls was evaluated by measuring the reversal ratio value (RR), combination index (CI), and isobolographic analysis (IB), as previously described.

[6] = test system: Mz-ChA-1; assay: Combination assay with sorafenib (MTT), Mz-ChA-1; assay type: cell-based, human;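 for increase of sorafenib cytotoxicity in combination: percent increase of sorafenib cell viability inhibition versus sorafenib alone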
Method: as §1, §3

[7] = test system: Bx-PC3; assay: Combination assay with sorafenib (MTT), Bx-PC3; assay type: cell-based, human;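 for increase of sorafenib cytotoxicity in combination: percent increase of sorafenib cell viability inhibition versus sorafenib alone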
Method: as §1, §3

[8] = test system: noncancerous H69 cholangiocytes; assay: Combination assay with sorafenib (MTT), tolerability in H69; assay type: cell-based, human; details: sesquiterpene 10 μg/mL combined with sorafenib (protective effect at sorafenib 10 μg/mL)
Method: as §1, §3

[9] = target: T1, Pgp (Homo sapiens, UniProt P08183); assay: ABC-mediated drug efflux assay, rhodamine 123 accumulation, HepG2 cells; details: 2 h pre-treatment, sesquiterpenes 10 μg/mL, verapamil 1 μg/mL, vs control
Method: (§4) The ability of β-caryophyllene and β-caryophyllene oxide to inhibit the activity of Pgp and MRP1/2 transporters was measured according to previously published methods with slight modifications. […] Fluorescence was measured at excitation and emission wavelengths of 485 nm and 535 nm for both probes, using a Cytation 1 Cell Imaging Multimode Reader (Biotech, Santa Clara, CA, USA). Results were normalized to viable cells and expressed as percentage of the negative control.

[10] = target: T1, Pgp; assay: ABC-mediated drug efflux assay, rhodamine 123 accumulation, Mz-ChA-1 cells; details: 2 h pre-treatment, sesquiterpenes 10 μg/mL, verapamil 1 μg/mL, vs control
Method: as §4

[11] = target: T1, Pgp; assay: ABC-mediated drug efflux assay, rhodamine 123 accumulation, Bx-PC3 cells; details: 2 h pre-treatment, sesquiterpenes 10 μg/mL, verapamil 1 μg/mL, vs control
Method: as §4

[12] = test system: MRP1/2; assay: ABC-mediated drug efflux assay, calcein-AM accumulation, HepG2 cells; assay type: cell-based, human; details: 2 h pre-treatment, sesquiterpenes 10 μg/mL, vs control
[13] = test system: MRP1/2; assay: ABC-mediated drug efflux assay, calcein-AM accumulation, Mz-ChA-1 cells; assay type: cell-based, human; details: 2 h pre-treatment, sesquiterpenes 10 μg/mL, vs control
[14] = test system: MRP1/2; assay: ABC-mediated drug efflux assay, calcein-AM accumulation, Bx-PC3 cells; assay type: cell-based, human; details: 2 h pre-treatment, sesquiterpenes 10 μg/mL, MK571 1 μg/mL, vs control
[15] = test system: MRP1; assay: RT-qPCR gene expression in Bx-PC3 cells, MRP1; assay type: cell-based, human; details: substance in combination with sorafenib, given for MRP1 and MRP2 together
Text: as §1

[16] = test system: Pgp; assay: Immunofluorescence analysis in Bx-PC3 cells, Pgp; assay type: cell-based, human
Method: as §1
(§5) The analysis was performed according to previously published methods. Confluent cells were seeded in 24-well plates (2 × 10^4 cells/well), allowed to adhere overnight, then treated as described above. After treatment, cells were fixed in pure methanol and washed with 4% bovine serum albumin (BSA) and PBS + Tween 20 (PBS-T) for 1 h. […] The expression and localization of Pgp, MRP1, and MRP2 pumps into cells were analyzed by using a Cytation 1 Cell Imaging Multimode Reader (Biotech, USA).

[17] = test system: MRP1; assay: Immunofluorescence analysis in Bx-PC3 cells, MRP1; assay type: cell-based, human; details: substance 10 µg/mL in combination with sorafenib 10 µg/mL
Method: as §1, §5

[18] = test system: MRP2; assay: Immunofluorescence analysis in Bx-PC3 cells, MRP2; assay type: cell-based, human
Method: as §1, §5

[19] = test system: phospho(Tyr705)-STAT3; assay: Western blotting of STAT3 phosphorylation in Bx-PC3 cells; assay type: cell-based, human
Method: as §1
Confluent cells were seeded in 6-well plates (5 × 10^5 cells/well), treated as described above, then harvested by centrifugation and washed in PBS. After lysis with a suitable buffer, the Western blotting analysis was carried out, according to previously published methods. […] The levels of phospho(Tyr705)-STAT3 were normalized against total STAT3 ones.

[20] = test system: Bx-PC3 cells; assay: Wound healing assay (cell migration); assay type: cell-based, human
Method: To evaluate the effect of caryophyllane sesquiterpenes, both alone and in combination with sorafenib, on the cell migration rate, the wound healing assay was performed. Bx-PC3 cells were seeded in 24-well plate at a density of 2.5 × 10^5 cells/well. After 24 h, the wound was created by scratching the well bottom with a 100 μL pipette tip, then the cells were treated under the scheduled conditions and images were captured at 0, 4, and 72 h using a Cytation 1 Cell Imaging Multi-Mode Reader. […] Results were expressed as wound area percentage with respect to that of the same well at zero time. The positive controls were also included.

[21] = set-up: method as in PMID 30659321; details: previous in vivo study; cited from earlier work
[22] = set-up: method as in PMID 33081075; details: European Food Safety Authority; cited from earlier work
[23] = test system: MDR1; assay: RT-qPCR gene expression in Bx-PC3 cells, MDR1
Method: (§6) Confluent cells were treated with the test substances, both alone or in combination with the anticancer drug, for 4 h, then washed and incubated for a further 72 h (Figure 1), according to previously published protocols [20]. […] Suitable vehicle controls were also included.
(§7) The results of mRNA abundance for the targeted genes in each sample were normalized on the basis of GAPDH (Bio-Rad, Hercules, CA, USA) mRNA. Data are expressed as 2^−ΔCt, calculated using the CFX Manager software (Bio-Rad).

[24] = test system: MRP2; assay: RT-qPCR gene expression in Bx-PC3 cells, MRP2; details: substance in combination with sorafenib, given for MRP1 and MRP2 together
Method: as §6, §7

[25] = substance alone, 4 h exposure + 72 h recovery
[26] = substance in combination with sorafenib 10 μg/mL

T1 sequence (P08183 whole entry): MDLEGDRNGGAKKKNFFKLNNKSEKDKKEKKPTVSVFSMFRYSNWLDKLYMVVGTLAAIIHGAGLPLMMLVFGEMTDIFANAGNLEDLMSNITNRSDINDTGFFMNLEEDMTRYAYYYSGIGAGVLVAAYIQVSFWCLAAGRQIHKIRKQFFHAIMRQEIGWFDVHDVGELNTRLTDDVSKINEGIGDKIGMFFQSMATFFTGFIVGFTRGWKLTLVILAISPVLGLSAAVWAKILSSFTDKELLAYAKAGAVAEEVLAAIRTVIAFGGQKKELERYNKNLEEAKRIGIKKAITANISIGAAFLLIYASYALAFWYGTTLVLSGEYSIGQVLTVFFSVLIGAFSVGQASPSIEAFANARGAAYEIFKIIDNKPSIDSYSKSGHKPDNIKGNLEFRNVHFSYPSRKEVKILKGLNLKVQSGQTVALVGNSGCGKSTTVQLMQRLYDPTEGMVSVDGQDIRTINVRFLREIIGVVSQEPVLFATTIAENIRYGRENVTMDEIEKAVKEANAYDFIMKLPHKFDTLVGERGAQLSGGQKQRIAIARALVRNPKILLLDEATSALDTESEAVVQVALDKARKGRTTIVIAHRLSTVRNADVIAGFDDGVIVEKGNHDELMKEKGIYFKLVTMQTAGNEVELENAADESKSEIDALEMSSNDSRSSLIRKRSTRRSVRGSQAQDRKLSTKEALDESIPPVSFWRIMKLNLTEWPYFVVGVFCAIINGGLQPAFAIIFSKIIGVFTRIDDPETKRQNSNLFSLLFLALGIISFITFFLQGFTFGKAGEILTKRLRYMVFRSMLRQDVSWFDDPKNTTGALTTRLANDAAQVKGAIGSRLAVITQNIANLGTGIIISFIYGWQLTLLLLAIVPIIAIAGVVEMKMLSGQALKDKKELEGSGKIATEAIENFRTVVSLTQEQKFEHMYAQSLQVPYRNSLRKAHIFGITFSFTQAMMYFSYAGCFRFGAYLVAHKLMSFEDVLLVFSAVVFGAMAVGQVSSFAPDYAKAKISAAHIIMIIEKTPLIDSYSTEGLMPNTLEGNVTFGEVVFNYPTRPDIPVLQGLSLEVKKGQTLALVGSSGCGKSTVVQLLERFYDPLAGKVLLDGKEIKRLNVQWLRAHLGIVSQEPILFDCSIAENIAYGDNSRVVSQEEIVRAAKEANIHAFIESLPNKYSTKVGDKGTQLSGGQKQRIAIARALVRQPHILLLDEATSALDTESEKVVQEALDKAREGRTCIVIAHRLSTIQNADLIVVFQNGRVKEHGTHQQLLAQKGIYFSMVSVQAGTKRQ

C=C1CC[C@H]2O[C@]2(C)CC[C@@H]2[C@@H]1CC2(C)C [β-Caryophyllene oxide, β-caryophyllene oxide]
IC50 higher than that of sorafenib [1]: 1.7 fold | IC50 (CL) ([1]; substance alone, 4 h exposure + 72 h recovery, CL confidence limits): 78.7 (76.8–80.5) *** µg/mL | IC50 higher than that of sorafenib [2]: 1.2 fold | inhibition of cell viability ([2]; 50 µg/mL): 16% | inhibition of cell viability ([2]; 250 µg/mL): 90% | IC50 (CL) [2, 25]: 94.5 (90.1–99.1) ** µg/mL | IC50 higher than that of sorafenib [3]: 2.1 fold | inhibition of cell viability ([3]; 50 µg/mL): 30% | inhibition of cell viability ([3]; 250 µg/mL): 95% | IC50 (CL) [3, 25]: 65.3 (62.1–68.7) *** µg/mL | IC50 (CL) [4]: 99.7 (93.1–106.9) *** µg/mL | reduction of sorafenib IC50 in the presence of the substance [5]: ~6 fold | combination index (CI) with sorafenib ([5]; CI lower than 1 = synergistic): 0.29 | increase of sorafenib cytotoxicity in combination ([5]; sorafenib 1 µg/mL): 20% | increase of sorafenib cytotoxicity in combination ([5]; sorafenib 10 µg/mL): ~44% | reduction of sorafenib IC50 in the presence of the substance [6]: ~1.5 fold | combination index (CI) with sorafenib ([6]; CI lower than 1 = synergistic): 0.76 | increase of sorafenib cytotoxicity in combination ([6]; sorafenib 10 µg/mL, verapamil/MK571 1 µg/mL or sesquiterpenes 10 µg/mL): 14% | increase of sorafenib cytotoxicity in combination ([6]; sorafenib 50 µg/mL, sesquiterpenes 10 µg/mL): 13% | reduction of sorafenib IC50 in the presence of the substance [7]: 9 fold | combination index (CI) with sorafenib ([7]; CI lower than 1 = synergistic): 0.26 | increase of sorafenib cytotoxicity in combination ([7]; sesquiterpenes 10 µg/mL, sorafenib concentration not stated (Figure 3F)): 64% | effect on sorafenib cytotoxicity in noncancerous cells [8]: null effect | increase of rhodamine 123 accumulation [9]: ~2.5 fold | increase of rhodamine 123 accumulation [10]: ~1.2 fold | increase of rhodamine 123 accumulation [11]: approximately 2.7 fold | increase of calcein-AM accumulation [12]: approximately 1.3 fold | increase of calcein-AM accumulation [13]: ~1.4 fold | increase of calcein-AM accumulation [14]: ~3.0 fold | reduction of MRP1 gene expression [15]: 3 fold | effect on Pgp expression (immunofluorescence) ([16]; substance alone, sorafenib and sesquiterpenes 10 µg/mL, verapamil 1 µg/mL): did not affect | reduction of Pgp expression compared to control [16, 26]: ~1.8 fold | reduction of MRP1 expression with respect to sorafenib [17]: 1.5 fold | reduction of MRP2 expression with respect to sorafenib ([18]; substance 10 µg/mL in combination with sorafenib 10 µg/mL): 1.6 fold | increase of MRP2 expression (immunofluorescence) ([18]; substance alone, 10 µg/mL): 1.2 fold | increase of STAT3 phosphorylation at tyrosine 705 ([19]; substance alone, sorafenib and sesquiterpenes 10 μg/mL, verapamil/MK571 1 μg/mL, normalized to total STAT3): approximately 3 fold | reduction of phospho(Tyr705)-STAT3 with respect to sorafenib [19, 26]: 2.6 fold | wound area / cell migration after 72 h ([20]; substance alone, sesquiterpenes 10 µg/mL, verapamil/MK571 1 µg/mL): blocked cell migration | increase of wound area ([20]; substance in combination with sorafenib 10 µg/mL, reference and time not stated): ~5 fold | safety in vivo up to [21]: ≤ 100 mg/kg | considered safe up to (approved as flavoring) [22]: ≤ 109 mg/kg/die | increase of MDR1 gene expression with respect to control [23, 25]: 4.7 fold | downregulation of MDR1 gene with respect to sorafenib alone ([23]; substance in combination with sorafenib): 1.3 fold | reduction of MRP2 gene expression [24]: 3 fold
